# Marks after values point to notes of the source that are not given here.
# What was measured:
# Format in all cases: in vivo
# Septoria nodorum = test: Test C: wheat glume blotch, preventive spray on wheat seedlings, disease rating
# Summary of the method: (§1)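 Preventive spray to run-off on wheat seedlings; test suspension in acetone:water 50:50 plus 250 ppm surfactant, acetone predissolution at 3% of final volume. Dose 200 ppm (≈500 g/ha) by default, 40 ppm or 50 ppm where flagged.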
# Septoria tritici = test: Test D: wheat leaf blotch, preventive spray on wheat seedlings, disease rating
# Summary of the method: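 Preventive test: one day after run-off spraying (200 ppm, equal to 500 g/ha, unless marked 40 or 50 ppm; acetone/water plus 250 ppm Trem 014), seedlings received S. tritici spore inoculum. Disease scored after 48 h at 24 °C in saturated air and 19 further days at 20 °C.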
# [1] = test system: Erysiphe graminis f. sp. tritici; test: Test A: wheat powdery mildew, preventive spray on wheat seedlings, disease rating
# Summary of the method: as §1
# Alternaria solani = test: Test H: tomato early blight, preventive spray on tomato seedlings, disease rating
# Summary of the method: (§2)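 Disease ratings follow a preventive run-off spray of tomato seedlings. Compounds were first dissolved in acetone (3% of volume), then suspended in 50/50 acetone/water containing 250 ppm Trem 014. Test level 200 ppm (equivalent to 500 g/ha) except where marked * for 40 ppm or ** for 50 ppm.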
# Botrytis cinerea = test: Test F: tomato Botrytis, preventive spray on tomato seedlings, disease rating; details: 200 ppm
# Summary of the method: as §2
# [2] = test system: Puccinia recondita f. sp. tritici; test: Test B: wheat leaf rust, preventive spray on wheat seedlings, disease rating
# Summary of the method: as §1
# [3] = 200 ppm, 100 = 100% disease control, 0 = no control relative to controls
# [4] = 100 = 100% disease control, 0 = no control relative to controls
# [5] = 40 ppm (*), 100 = 100% disease control, 0 = no control relative to controls
Compound,"Percentage Disease Control, Test C (Septoria nodorum; 40 ppm (*))","Percentage Disease Control, Test D (Septoria tritici; 40 ppm (*))","Percentage Disease Control, Test A ([1]; 40 ppm (*))","Percentage Disease Control, Test H (Alternaria solani; 40 ppm (*))","Percentage Disease Control, Test F (Botrytis cinerea)","Percentage Disease Control, Test B ([2]; 40 ppm (*))","Percentage Disease Control, Test H (Alternaria solani; 200 ppm)","Percentage Disease Control, Test C (Septoria nodorum; [3])","Percentage Disease Control, Test D (Septoria tritici; [3])","Percentage Disease Control, Test A [1, 3]","Percentage Disease Control, Test H (Alternaria solani; [3])","Percentage Disease Control, Test F (Botrytis cinerea; [4])","Percentage Disease Control, Test B [2, 3]","Percentage Disease Control, Test D (Septoria tritici; [5])","Percentage Disease Control, Test C (Septoria nodorum; [5])","Percentage Disease Control, Test B [2, 5]"
COC(=O)NCc1cc(-n2ccc(-c3cccc(Br)c3)n2)ccc1Cl [Cmpd 121],100* %,99* %,98* %,90* %,0%,98* %,,,,,,,,,,
COC(=O)NCc1cc(-n2ccc(-c3ccc(Cl)cc3)n2)ccc1Cl [Cmpd 122],100* %,100* %,100* %,97* %,63%,100* %,,,,,,,,,,
COC(=O)NCc1cc(-n2ccc(-c3cccc(Cl)c3)n2)ccc1Cl [Cmpd 123],100* %,99* %,98* %,,63%,99* %,87%,,,,,,,,,
COC(=O)NCc1cc(-n2ccc(-c3ccc(Br)cc3)n2)ccc1Cl [Cmpd 124],100* %,100* %,100* %,99* %,0%,100* %,,,,,,,,,,
COC(=O)NCc1cc(-c2cn[nH]c2)ccc1Cl [Cmpd 127],,,,,,,,0%,53%,0%,0%,0%,9%,,,
COC(=O)NCc1cc(-c2cnn(Cc3ccccc3)c2)ccc1Cl [Cmpd 128],,,,,,,,82%,,29%,0%,0%,98%,96* %,,
COC(=O)NCc1cc(-c2cnn(Cc3ccccc3Cl)c2)ccc1Cl [Cmpd 129],,,,,,,,90%,,94%,0%,0%,98%,92* %,,
COC(=O)NCc1cc(-c2ccnc(Cl)n2)ccc1Cl [Cmpd 130],,,,,,,,92%,96%,80%,0%,0%,67%,,,
COC(=O)NCc1cc(-c2ccnc(-c3csc(C)n3)n2)ccc1Cl [Cmpd 131],,,,,,,,0%,13%,0%,0%,0%,0%,,,
COC(=O)NCc1cc(-c2ccnc(-c3ccc(C)cc3)n2)ccc1Cl [Cmpd 132],,,,,,,,,,80%,0%,0%,,100* %,98* %,95* %
COC(=O)NCc1cc(-c2ccnc(-c3cccc(C)c3)n2)ccc1Cl [Cmpd 133],,,,,,,,93%,,94%,0%,0%,93%,92* %,,
COC(=O)NCc1cc(-c2ccnc(-c3ccccc3)n2)ccc1Cl [Cmpd 134],,,,,,,,,87%,0%,0%,0%,84%,,96* %,
